Among the data in patent US20100179089A1, “Compositions and Methods to Manage the Inflammatory Basis of Chronic Disease Conditions and Maintain an Optimal Immune Response in Elderly” (priority 2009, published 2010) are Protein synthesis, Muscle protein synthesis and Muscle protein breakdown values, retold here.

Each structure is given as a SMILES string. Like-named read-outs stand apart in the source and are kept apart here.

Assay [1] deals with protein synthesis. Description: Amino acid supplementation and protein synthesis in normal, inflamed and inflamed with DHA conditions (FIG. 4). As to conditions: conditions of inflammation (FIG. 4). The source says:
Given the observed changes in protein intake and observed changes in protein synthesis in aging, it is believed that a hyperinflammed state compromises protein synthesis and further accentuates chronic disease related to arginine deficiency and malnutrition.
Omega-3 fatty acids, including but not limited to alpha-linolenic acid (ALA), eicosapentaenoic (EPA) and docosahexaenoic acids (DHA); omega-6 linoleic acid; and borage oil (also an omega-6 fatty acid) are currently used in different diets with the intention to improve immune dysfunction. […] Used with omega-3 fatty acids, arginine is believed to be more available to provide a normal response under conditions of inflammation. Dietary intake of omega-3 fatty acids by the elderly may favorably shift the balance in the production of PGE2, via […] and downregulation of arginase (as shown in FIG. 6) and, consequently, help avoid arginine deficiency and thereby improve or maintain optimal immune system function. […] The products of omega-6 fatty acid metabolism are believed to contribute to arginine deficiency and inflammation in this way. There have been numerous studies showing the benefits of dietary omega-3 fatty acids over omega-6 fatty acids in various physiologic conditions including coronary artery disease, chronic inflammatory conditions such as cancer, and other inflammatory mediated states.

In assay [2] the test system is muscle protein synthesis. As to conditions: cited from earlier work.
In assay [3] the test system is muscle protein synthesis. As to conditions: pigs with a sepsis-like syndrome, arginine supplementation; cited from earlier work.

On to `CC/C=C\C/C=C\C/C=C\C/C=C\C/C=C\C/C=C\CCC(=O)O` [DHA, docosahexaenoic acids], for which the Protein synthesis result in assay [1] is recorded as “improves the efficacy of arginine delivery in promoting protein synthesis”.

Take `N=C(N)NCCC[C@H](N)C(=O)O` [arginine]: the Muscle protein synthesis result in assay [2] (anesthetized rabbits, infusion) is listed as “stimulated”; in assay [3], “improved”. Moreover, the Muscle protein breakdown entry in assay [2] (post-absorptive rabbits, arginine added to the amino acid solution) is “unchanged”.
